# In US9957253B2, “Triaminopyrimidine compounds useful for preventing or treating malaria” (MMV MEDICINES FOR MALARIA VENTURE, priority 2014, dated 2018):
# Where a name gives a salt, the structure may show the parent alone.
# How the values were obtained:
# [1] = tested on: hepatocytes; test: Metabolic stability assay (hepatocyte Clint), rat; type: in vitro ADME; settings: 1 μM compound
# Experimental: Metabolic Stability Assay (Rat/Human Hepatocyte Clint)
# Viability of cryopreserved hepatocytes was determined using trypan blue and the cell concentration was adjusted to 10^6 cells per mL with Leibovitz L-15 Buffer. 1 μM compound (in Acetonitrile; 0.01% DMSO) was incubated with 500 μL of hepatocytes (1 million cells per mL) in a NUNC plate. Reaction was stopped at different time points (0, 5, 15, 30, 60, 90 and 120 min) by addition of 3 volumes of chilled acetonitrile to 100 μL of reaction mixture and centrifuged at 4° C. for 15 min. Supernatants were analyzed using LC-MS/MS for substrate depletion.
# [2] = tested on: hepatocytes; test: Metabolic stability assay (hepatocyte Clint), dog; type: in vitro ADME; settings: 1 μM compound
# [3] = Blood:Plasma (BP) ratio, dog; type: in vitro ADME; settings: 10 μM, 37° C., 30 min
# Experimental: Determination of Blood:Plasma (BP) Ratio
# The incubation plate and the dog blood/plasma was preheated at 37° C. for 10 minutes. 2 μL of working solution of each compound was added to 398 μL of dog reference plasma or blood to achieve a final concentration of 10 μM. Plates were incubated at 37° C. with shaking for 30 min. After incubation, the blood samples are spun for 10 min. at 4,000 rpm (37° C.) and the plasma samples were stored at 37° C. Aliquots (100 μL) of plasma separated from centrifuged whole blood samples and reference plasma samples were transferred into 96-well plates. 400 μL of cold acetonitrile was added to precipitate protein and release compound. After vortexing for 10 min., plates were centrifuged for 30 min. at 4,000 rpm. 250 μL of the supernatant was transferred to new 96-well plates and centrifuged again at 4,000 rpm for 30 min. 100 μL of the supernatant was used for analysis by LC-MS/MS.
# [4] = Plasma protein binding assay (equilibrium dialysis), rat; type: in vitro ADME
# Experimental: (§1) Plasma Protein Binding Assay
# (§2) Protein binding is measured using the equilibrium dialysis technique. Compound is added to 10% plasma giving a concentration of 20 μM and dialysed with isotonic buffer for 18 hours at 37° C. The plasma and buffer solutions are analysed using generic LCUVMS and the first apparent binding constant for the compound derived. The binding constant is then used to determine the % free in 100% plasma.
# [5] = Plasma protein binding assay (equilibrium dialysis), dog; type: in vitro ADME
# Experimental: as §1, §2
# [6] = Plasma protein binding assay (equilibrium dialysis), human; type: in vitro ADME
# Experimental: as §1, §2
# [7] = Prediction of hepatic blood clearance (well stirred model), dog
# [8] = Pharmacokinetics in the blood of infected Pf/SCID mice; type: in vivo; settings: 40 mg/kg
# Experimental: Pharmacokinetics in the Blood of Infected Pf/SCID Mice:
# Peripheral blood samples (25 μl) were taken at different times (0.25, 0.5, 1, 2, 4, 6, 8 and 23 hours), mixed with 25 µl of H2O mili Q and immediately frozen on dry ice. The frozen samples were stored at −80° C. until analysis. Vehicle-treated mice experienced the same blood-sampling regimen. Blood samples were processed by liquid-liquid extraction by mixing 10 μl diluted blood with 180 μl AcN:MeOH (80:20; v:v) mixture. Quantitative analysis by LC/MSMS was performed using UPLC (Waters) and Sciex API4000. The lower limit of quantification (LLOQ) in this assay was 0.005 μg/ml.
# [9] = molecular target: T1, CYP3A4 (Homo sapiens, UniProt P08684); test: CYP inhibition assay, CYP 3A4; type: in vitro ADME; settings: probe midazolam; human liver microsomes, substrate cocktail
# Experimental: (§3) This study was conducted using specific substrates for 5 major human CYP isozymes. These substrates were used as a cocktail (phenacetin, diclofenac, S-mephenytoin, bufuralol and midazolam which are predominantly metabolised by CYP 1A2, 2C9, 2C19, 2D6 and 3A4/5, respectively) at concentrations equivalent to their respective Km values. LC-MS-MS (MRM mode) was used to follow the formation of the CYP specific metabolites. A decrease in the formation of the metabolites in peak area to vehicle control was used to calculate the IC50 value. […] Test compound was used at 6 different concentrations ([…]) to estimate IC50.
# (§4) The incubation was carried out in 96 deep well plates. Mixture of 180 μL of 20 mg/mL HLM and 90 μL of substrate cocktail solution was added to 15840 μL of phosphate buffer and 179 μL of this mixture was mixed with 1 μL of the test compound, inhibitor cocktail solution or vehicle in each well. The final concentration of DMSO:ACN in the assay mix was 0.3:0.7% v/v. The incubation plate was placed into the water bath and pre-warmed at 37° C. for 5 min before the reactions were started by the addition of 20 μL of 10 mmol/L NADPH solution in phosphate buffer. After the addition of NADPH, the incubation plate was incubated at 37° C. for a further 5 min. The reaction was quenched by the addition of 1 volume (200 μL) of cold ACN containing 3% formic acid and 40 nmol/L verapamil. The plates were kept on ice for 20 min and then centrifuged at 4000 rpm for 30 min to precipitate protein. The supernatant 180 μL was transferred to the analysis plate for LC/MS/MS analysis.
# Target sequence in this assay (P08684 2-503): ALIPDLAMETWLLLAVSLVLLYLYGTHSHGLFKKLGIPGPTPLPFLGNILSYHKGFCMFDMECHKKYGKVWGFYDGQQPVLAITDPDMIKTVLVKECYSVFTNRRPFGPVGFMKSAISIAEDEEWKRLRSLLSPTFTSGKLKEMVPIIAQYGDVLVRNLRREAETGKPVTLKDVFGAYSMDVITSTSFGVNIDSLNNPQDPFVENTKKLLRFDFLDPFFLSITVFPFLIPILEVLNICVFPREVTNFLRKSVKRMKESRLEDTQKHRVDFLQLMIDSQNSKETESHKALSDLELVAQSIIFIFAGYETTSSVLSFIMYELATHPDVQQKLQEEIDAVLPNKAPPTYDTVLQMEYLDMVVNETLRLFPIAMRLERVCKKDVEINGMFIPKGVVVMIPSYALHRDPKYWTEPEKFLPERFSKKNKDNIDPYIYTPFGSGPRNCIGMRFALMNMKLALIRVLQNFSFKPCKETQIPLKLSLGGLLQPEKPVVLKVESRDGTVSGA
# [10] = molecular target: T2, human CYP 2C9 (Homo sapiens, UniProt P11712); test: CYP inhibition assay, CYP 2C9; type: in vitro ADME
# T2 sequence (P11712 whole entry): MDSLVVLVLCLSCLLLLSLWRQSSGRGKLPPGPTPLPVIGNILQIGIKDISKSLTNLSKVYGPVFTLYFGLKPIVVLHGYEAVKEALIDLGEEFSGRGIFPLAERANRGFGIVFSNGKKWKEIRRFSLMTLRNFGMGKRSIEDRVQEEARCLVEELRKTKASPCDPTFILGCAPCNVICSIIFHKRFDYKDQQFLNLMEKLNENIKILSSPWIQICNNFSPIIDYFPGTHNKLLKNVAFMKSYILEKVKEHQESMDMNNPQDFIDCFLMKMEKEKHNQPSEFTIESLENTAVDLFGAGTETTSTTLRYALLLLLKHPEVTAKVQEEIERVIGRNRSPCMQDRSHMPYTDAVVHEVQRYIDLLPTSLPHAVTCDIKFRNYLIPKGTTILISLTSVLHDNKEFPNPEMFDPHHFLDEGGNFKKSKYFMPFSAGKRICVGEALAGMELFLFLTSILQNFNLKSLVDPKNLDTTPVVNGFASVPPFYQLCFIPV
# Experimental: as §3, §4
# [11] = molecular target: T1, CYP3A4; test: Time dependent CYP inhibition assay, CYP 3A4; type: in vitro ADME
# Target sequence in this assay (P08684 whole entry): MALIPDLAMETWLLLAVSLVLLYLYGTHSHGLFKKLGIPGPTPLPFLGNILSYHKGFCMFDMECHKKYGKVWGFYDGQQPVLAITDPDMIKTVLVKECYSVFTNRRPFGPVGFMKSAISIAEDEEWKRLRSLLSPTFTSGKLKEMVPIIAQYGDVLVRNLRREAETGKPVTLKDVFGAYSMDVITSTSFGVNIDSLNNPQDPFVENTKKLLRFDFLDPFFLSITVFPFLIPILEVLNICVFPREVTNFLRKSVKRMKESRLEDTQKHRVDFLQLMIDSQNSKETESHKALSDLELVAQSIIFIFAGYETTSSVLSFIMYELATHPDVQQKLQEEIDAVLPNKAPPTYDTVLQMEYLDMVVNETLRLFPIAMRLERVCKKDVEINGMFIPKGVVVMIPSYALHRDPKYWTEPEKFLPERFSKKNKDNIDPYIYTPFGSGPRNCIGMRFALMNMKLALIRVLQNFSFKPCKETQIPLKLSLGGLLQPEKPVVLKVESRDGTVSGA
# [12] = molecular target: T2, human CYP 2C9; test: Time dependent CYP inhibition assay, CYP 2C9; type: in vitro ADME
# [13] = molecular target: T3, human CYP 2C19 (Homo sapiens, UniProt P33261); test: Time dependent CYP inhibition assay, CYP 2C19; type: in vitro ADME
# T3 construct: Mixture of 180 μL of 20 mg/mL HLM and 90 μL of substrate cocktail solution; from tissue; host or cells: human liver microsomes (HLM)
# T3 sequence (P33261 whole entry): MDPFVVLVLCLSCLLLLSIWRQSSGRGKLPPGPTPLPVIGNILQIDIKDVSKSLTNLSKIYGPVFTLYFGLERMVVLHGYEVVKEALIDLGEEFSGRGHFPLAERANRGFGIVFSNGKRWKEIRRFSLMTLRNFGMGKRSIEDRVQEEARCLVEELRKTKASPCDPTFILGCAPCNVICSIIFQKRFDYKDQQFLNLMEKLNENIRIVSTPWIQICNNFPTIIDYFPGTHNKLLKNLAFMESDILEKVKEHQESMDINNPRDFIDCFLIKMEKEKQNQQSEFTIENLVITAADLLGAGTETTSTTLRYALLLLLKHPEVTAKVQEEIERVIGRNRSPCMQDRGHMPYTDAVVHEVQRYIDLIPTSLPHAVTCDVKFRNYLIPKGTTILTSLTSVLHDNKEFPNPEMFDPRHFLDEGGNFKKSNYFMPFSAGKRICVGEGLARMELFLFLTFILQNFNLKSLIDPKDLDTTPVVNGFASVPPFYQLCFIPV
# [14] = human liver microsomes, substrate cocktail, read-out: IC50 CYP 2C9
SMILES,Hep. Clint [1] [μl/min/1E6],Hep. Clint [2] [μl/min/1E6],BP ratio [3],Fup [4],Fup [5],Fup [6],Predicted CLh blood [7] [mL/min/kg],"Blood Cmin (minimum parasiticidal concentration, MPC) [8] [nM]",IC50 at 5 min [9] [µM],"IC50 [10, 14] [µM]",IC50 [11] [µM],IC50 [12] [µM],IC50 [13] [µM],IC50 [10] [µM]
"Cc1nc(Nc2ncc(N3CCN(C)[C@H](C)C3)c(Nc3cc(C)n(C)n3)n2)cc(C2CC2)c1F [Example 13, (R)—N2-(4-cyclopropyl-5-fluoro-6-methylpyridin-2-yl)-N4-(1,5-dimethyl-1H-pyrazol-3-yl)-5-(3,4-dimethylpiperazin-1-yl)pyrimidine-2,4-diamine]",11.3,9.3,1.35,0.04,0.04,0.03,20.80,40,> 30,> 30,> 56,> 56,> 56,–
"Cc1nc(Nc2ncc(N3CCN[C@H](C)C3)c(Nc3cnn(C)n3)n2)cc(C2CC2)c1Cl [Example 10, (R)—N2-(5-chloro-4-cyclopropyl-6-methylpyridin-2-yl)-N4-(2-methyl-2H-1,2,3-triazol-4-yl)-5-(3-methylpiperazin-1-yl)pyrimidine-2,4-diamine dihydochloride]",8.3,5.1,1.7,0.04,0.04,0.04,12.70,–,> 30,> 30,> 56,> 56,> 56,–
"CCc1cc(Nc2ncc(N3CCN[C@H](C)C3)c(Nc3cc(C)n(C)n3)n2)nc(C)c1F [Example 7, (R)—N4-(1,5-dimethyl-1H-pyrazol-3-yl)-N2-(4-ethyl-5-fluoro-6-methylpyridin-2-yl)-5-(3-methylpiperazin-1-yl)pyrimidine-2,4-diamine dihydrochloride]",5.6,–,–,0.06,–,0.03,–,–,> 30,–,> 56,> 56,> 56,> 30
